No end group written: not given here.

The subject of one assay is E-tag antibody. In words: ELISA analysis of phage on antibody raised against ETAG (positive control). To be noted: peptide binding to E-tag antibody; phage ELISA units read at 405 nm. The method in brief:
(§1)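 Phage from picked clones (M13KO7 helper) bound 2 hr at room temperature to wells coated overnight at 4 °C with 500 ng/well anti-ETAG antibody or LDH, milk-blocked. Detection with HRP-anti-M13 (1:3000) and ABTS at 405 nm; positive when A405 ≥2-fold over background.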
On the technique in general: In an ELISA, binding on a coated surface is turned into a signal by an enzyme label.

The next assay has as its target T1, DGI-2 (Homo sapiens, UniProt Q15004).
T1 construct: encompassed the entire DGI-2 open reading frame (ORF); His-tag of vector pIVEX2.3-MCS (inferred from the vector and from the reverse primer lacking a stop codon); made in house; host or cells: cell-free in vitro translation (Rapid Translation System RTS, Roche; E. coli lysate)
T1 sequence (Q15004 1-111): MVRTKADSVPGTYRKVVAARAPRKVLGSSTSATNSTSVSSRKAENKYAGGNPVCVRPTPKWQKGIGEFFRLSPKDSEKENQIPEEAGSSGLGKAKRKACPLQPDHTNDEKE
In words: ELISA analysis of phage on DGI-2 polypeptide (specific binding). To be noted: for DGI-2 (OD): binding to DGI-2 polypeptide (specific binding), phage ELISA units read at 405 nm; for DGI-2/LDH (OD): ratio of specific binding to non-specific binding. Put shortly: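 Recombinant DGI-2 from in vitro translation, LDH (non-specific) and controls were coated at 500 ng/well and blocked with 2% milk-PBS. Phage from individual clones bound for 2 hr at room temperature, then anti-M13-HRP with ABTS was read at 405 nm; a clone counted as positive at ≥2-fold over background.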

Assay [1] concerns lactate dehydrogenase (LDH). In words: ELISA analysis of phage on LDH (irrelevant, non-specific target). The assay is classed as binding. The settings on record: peptide binding to LDH polypeptide (non-specific binding); phage ELISA units read at 405 nm. The method in brief: as §1

Take “SIILAGCVWVMPCGQNLGGV (DGI-2-20F-PP-C4; listed as Escherichia coli)”: the “ETAG (OD)” value in the assay with E-tag antibody is 36.1 OD. Further, in the assay with DGI-2, the “DGI-2 (OD)” value was determined as 3.0 OD and the “DGI-2/LDH (OD)” value amounted to 3.2. Further, in assay [1], the “LDH (OD)” value came out at 0.9 OD.
In the same order, the values of “SIVSSRSGWQRGWIAWEAPV (SIVSSRSGWQRGWIAWFAPV; DGI-2-20F-PP-E5; listed as Escherichia coli)” are 30.4 OD, 2.7 OD, 2.7 and 1.0 OD.
In the same order, the values of “SLECWAMPGMVVRLVGCDGP (DGI-2-20R-4-H112; listed as Escherichia coli)” are 12.3 OD, 6.6 OD, 6.0 and 1.1 OD.
In the same order, the values of “SLFERSARSRYHGSPDCNGS (DGI-2-20F-PP-A3; listed as Escherichia coli)” are 12.9 OD, 2.8 OD, 2.4 and 1.2 OD.
For the substance “SLLCVVCRPVSGGRALGGVP (DGI-2-20F-PP-B42; listed as Escherichia coli)”, in the assay on E-tag antibody, the “ETAG (OD)” value was determined as 21.5 OD. Further, in the assay with DGI-2, the “DGI-2 (OD)” value is 2.4 OD and the “DGI-2/LDH (OD)” value is given as 2.5. In addition, the “LDH (OD)” value in assay [1] is reported as 1.0 OD.
For the substance “SLSLYWDAQVGCEVFWGYCV (DGI-2-20R-3-C10; listed as Escherichia coli)”, the “ETAG (OD)” value with E-tag antibody is 14.7 OD. For the same substance, in the assay with DGI-2, the “DGI-2 (OD)” value is given as 2.2 OD and the “DGI-2/LDH (OD)” value is on record as 2.1. The “LDH (OD)” value in assay [1] came out at 1.0 OD.
Regarding “SRELGKWGRLWQDWSSGNFS (DGI-2-20R-3-C11; listed as Escherichia coli)”, the “ETAG (OD)” value in the assay on E-tag antibody came to 18.9 OD. Further, in the assay with DGI-2, the “DGI-2 (OD)” value is 8.6 OD and the “DGI-2/LDH (OD)” value came out at 8.3. Moreover, the “LDH (OD)” value in assay [1] is 1.0 OD.
In the same order, the values of “SRGMAEAQFSAWPVLAVFPL (DGI-2-20F-PP-H8; listed as Escherichia coli)” are 32.4 OD, 1.6 OD, 1.9 and 0.9 OD.
In the same order, the values of “SRPGWCSRGTAWGFPGCSSS (DGI-2-20R-3-C4; listed as Escherichia coli)” are 19.1 OD, 4.5 OD, 4.2 and 1.1 OD.
On to “SSVWATWGSDLRTFGSVGFL (DGI-2-20F-PP-C7; listed as Escherichia coli)”, for which the “ETAG (OD)” value in the assay on E-tag antibody worked out at 11.0 OD. Also, in the assay with DGI-2, the “DGI-2 (OD)” value is given as 3.0 OD and the “DGI-2/LDH (OD)” value came to 2.6. The “LDH (OD)” value in assay [1] came out at 1.1 OD.
Take “SVSGGGVFGTGGRVRHQVSG (DGI-2-20F-PP-C5; listed as Escherichia coli)”: the “ETAG (OD)” value in the assay with E-tag antibody came to 33.9 OD. For the same substance, in the assay with DGI-2, the “DGI-2 (OD)” value was determined as 2.2 OD and the “DGI-2/LDH (OD)” value was determined as 2.4. Also, the “LDH (OD)” value in assay [1] was 0.9 OD.
In the same order, the values of “SVTISTSCRTGCPAGYLRRD (DGI-2-20F-PP-D2; listed as Escherichia coli)” are 30.8 OD, 2.2 OD, 3.1 and 0.7 OD.
In the same order, the values of “SWACGLLWPGECGSQVARRG (DGI-2-20R-3-D127; listed as Escherichia coli)” are 15.4 OD, 6.7 OD, 6.4 and 1.0 OD.
Consider “SWRLWVSGELQGDRRKGLRG (DGI-2-20R-3-B7; listed as Escherichia coli)”, for which the “ETAG (OD)” value in the assay on E-tag antibody is listed as 11.7 OD. Further, in the assay with DGI-2, the “DGI-2 (OD)” value is listed as 3.1 OD and the “DGI-2/LDH (OD)” value was found to be 3.0. Besides, the “LDH (OD)” value in assay [1] is recorded as 1.0 OD.
In the same order, the values of “SYRNFAMQSSLQVRRGSVVEDGTCWWEGVRCYSG (DGI-2-40F-4-F6; listed as Escherichia coli)” are 13.5 OD, 3.2 OD, 3.2 and 1.0 OD.
In the same order, the values of “TANGHRYGGCGLWCKWMSGM (DGI-2-20R-4-E2; listed as Escherichia coli)” are 18.2 OD, 2.7 OD, 2.5 and 1.1 OD.
In the same order, the values of “TCWIHRGLNVVRYSVNFGVRDARLTTQGMAWFPPGCGQGCV (TCWHRGLNVVRYSVNFGVRDARLTTQGMAWFPPGCGQGCV; DGI-2-40F-4-E62; listed as Escherichia coli)” are 14.8 OD, 4.6 OD, 4.5 and 1.0 OD.
For the substance “TFTRDVAGPAVSFVRLHSWN (DGI-2-20F-PP-A9; listed as Escherichia coli)”, in the assay with E-tag antibody, the “ETAG (OD)” value was 40.8 OD. Moreover, in the assay with DGI-2, the “DGI-2 (OD)” value turned out to be 2.7 OD and the “DGI-2/LDH (OD)” value is listed as 2.3. In addition, the “LDH (OD)” value in assay [1] amounted to 1.2 OD.
In the same order, the values of “TIDVARRFGYGWWDLWLDGD (DGI-2-20R-3-C3; listed as Escherichia coli)” are 20.2 OD, 7.9 OD, 7.0 and 1.1 OD.
In the same order, the values of “TLVTEGNIKGSVKAHKDIGVWQLWWDWLSVTDSETVGRVSH (TLVTEGNKGSVKAHKDIGVWQLWWDWLSVTDSETVGRVSH; DGI-2-40F-3-D10; listed as Escherichia coli) [DGL-2-40F-3-D10]” are 10.3 OD, 1.5 OD, 1.7 and 0.9 OD.
In the same order, the values of “TPDRCLIYSSIQCLLEYSARRGSAD (DGI-2-20C-3-C65; listed as Escherichia coli)” are 7.4 OD, 1.8 OD, 1.8 and 1.0 OD.
On to “TPVAISIPAGVCSTSVCGRD (DGI-2-20F-PP-C11; listed as Escherichia coli)”, for which the “ETAG (OD)” value with E-tag antibody was 3.2 OD. Besides, in the assay with DGI-2, the “DGI-2 (OD)” value is 2.4 OD and the “DGI-2/LDH (OD)” value is on record as 2.6. The “LDH (OD)” value in assay [1] is 0.9 OD.
In the same order, the values of “TSCQVMFLAGQHLLSRVPRL (DGI-2-20R-3-B6; listed as Escherichia coli) [DGL-2-20R-3-B6]” are 11.7 OD, 2.8 OD, 2.7 and 1.0 OD.
For the substance “TVKFQGVVQERSRIAGFRYCGDHAVSWGLAGCPALRDKLQ (DGI-2-40F-3-C424; listed as Escherichia coli)”, the “ETAG (OD)” value in the assay on E-tag antibody was found to be 14.8 OD. Moreover, in the assay with DGI-2, the “DGI-2 (OD)” value was 5.5 OD and the “DGI-2/LDH (OD)” value was found to be 5.2. Also, the “LDH (OD)” value in assay [1] stood at 1.1 OD.
For the substance “V#CR#LCRLCRFSMRCGGLSLVLGSAAAFFCEVFVGFCV (VCRLCRLCRFSMRCGGLSLVLGSAAAFFCEVFVGFCV; not fully specified (residues 1, 3); cysteine pairing not given here; also: TAA stop codons (#) after V1 and after R3; listed as Escherichia coli) [DGI-2-40F-4-E1130]”, the “ETAG (OD)” value in the assay with E-tag antibody is recorded as 8.3 OD. Besides, in the assay with DGI-2, the “DGI-2 (OD)” value was determined as 2.9 OD and the “DGI-2/LDH (OD)” value turned out to be 3.2. Further, the “LDH (OD)” value in assay [1] turned out to be 0.9 OD.
In the same order, the values of “VAFGEQJRVAMAGTLWQRWR (VAFGEQIRVAMAGTLWQRWR; not fully specified; non-natural residue J; DGI-2-20R-3-D5; listed as Escherichia coli)” are 8.5 OD, 1.5 OD, 1.4 and 1.1 OD.
In the same order, the values of “VCGQRVARMQLNKTIRKLDS (DGI-2-20F-PP-A6; listed as Escherichia coli)” are 35.1 OD, 3.1 OD, 2.8 and 1.1 OD.
On to “VCSGGKGTWLEIPDRVRSST (DGI-2-20F-PP-A22; listed as Escherichia coli)”, for which, in the assay with E-tag antibody, the “ETAG (OD)” value was determined as 44.1 OD. In addition, in the assay with DGI-2, the “DGI-2 (OD)” value stood at 3.3 OD and the “DGI-2/LDH (OD)” value worked out at 3.1. Besides, the “LDH (OD)” value in assay [1] stood at 1.0 OD.
In the same order, the values of “VGHLLSRCAHHSPGMGASPYG (DGI-2-20F-PP-B11; listed as Escherichia coli)” are 40.8 OD, 2.6 OD, 2.7 and 1.0 OD.
In the same order, the values of “VGQSSGDARPLANLFVFPFV (DGI-2-20F-PP-F12; listed as Escherichia coli)” are 47.6 OD, 2.1 OD, 2.3 and 0.9 OD.

(Values after patent US7056679B2, “Target specific screening and its use for identifying target binders” (Antyra, Inc., priority 2001, dated 2006).)
